Measurements as given in patent US6376510B1, “Neuromuscular relaxants” (Newlaxant LLC, priority 1997, dated 2002).
Like-named read-outs stand apart in the source and are kept apart here.

Legend:
[1] = test system: anesthetized rats (evoked responses of anterior tibial muscle); assay: In vivo neuromuscular block and cardiovascular side effects, anesthetized rat (Example 8, Table 3); conditions: for RI (recovery index): spontaneous recovery, 25-75% neuromuscular response; for Onset: time to 80-85% neuromuscular block
From the text: The neuromuscular blocking activity and other effects (e.g. cardiovascular side effects) of selected agents were investigated on several different experimental animals. Justification for this approach lies in the commonly known fact that the pharmacodynamic and pharmacokinetic properties of these agents are markedly variable from species to species. Therefore, the most important aspects of the projected therapeutic utility of these agents, e.g., neuromuscular blocking potency, onset and duration of action, and side effects cannot be ascertained in “in vitro” preparations or by using only one species of animals.
(§1) a) Adult, male albino rats were anesthetized with pentobarbital injected intraperitoneally. The trachea was cannulated for artificial respiration via a small animal respirator. The carotid artery was cannulated for recording blood pressure via a transducer and heart rate by a cardiotachograph on a polygraph. One external jugular vein was cannulated for i.v. drug administration. Neuromuscular function was monitored by electromyography, recording evoked responses from the anterior tibial muscle as a result of supramaximal nerve stimuli consisting of single or “train-of-four” rectangular pulses of 0.1-0.2 msec duration every 10-12 seconds, delivered to the sciatic or common peroneal nerve by a laboratory nerve stimulator. Another mode of stimulation included repeated single stimuli delivered at 0.1 Hz or 1 Hz. […] The agents were dissolved in physiologic saline and injected intravenously at appropriate time intervals. The intensity, onset, and duration of neuromuscular block and its type were determined with each agent. Through administering several doses, the doses corresponding to 50%, 80% and 90% neuromuscular block were determined. All agents were compared with selected standard neuromuscular blocking compounds, e.g. succinylcholine, pancuronium, mivacurium, or rocuronium.
(§2) Onset=time in minutes to 80-85% neuromuscular block.
(§3) RI=recovery index, minutes, spontaneous recovery, 25-75% neuromuscular response.
(§4) VB=vagal block, %, at 80-85% neuromuscular blocking dose.
(§5) ΔHR=change in heart rate, %, at 80-85% neuromuscular blocking dose.
(§6) ΔBP=change in arterial blood pressure, %, at 80-85% neuromuscular blocking dose.

[2] = test system: anesthetized juvenile pigs; assay: animal or person; type: in vivo; conditions: pig; for ED50: intravenous dose causing 50% neuromuscular block; for RI (recovery index): spontaneous recovery, 25-75% neuromuscular response; for Onset: time to 80-85% neuromuscular block
From the text: Both electromyographic and mechanomyographic responses can be quantified.
The techniques described under a) and b) were employed in other species as needed with the modification that juvenile pigs were initially anesthetized with inhalation of halothane (Table 5) and monkeys were initially sedated with intramuscular ketamine injections prior to inducing and maintaining general anesthesia using pentobarbital and propofol administered intravenously (Table 6).

[3] = test system: rabbits; assay: In vivo neuromuscular block and cardiovascular side effects, rabbit (Example 8, Table 7); conditions: for ED50: intravenous dose causing 50% neuromuscular block; for RI (recovery index): spontaneous recovery, 25-75% neuromuscular response; for Onset: time to 80-85% neuromuscular block
[4] = test system: anesthetized cats (evoked responses of anterior tibial muscle); assay: animal or person; conditions: for ED50: Felis catus, iv; for VB (vagal block) / ΔBP (change in arterial blood pressure) / ΔH (change in heart rate) / RI (recovery index) / Onset: cat; for VB (vagal block) / ΔBP (change in arterial blood pressure) / ΔH (change in heart rate): at 80-85% neuromuscular blocking dose; for RI (recovery index): spontaneous recovery, 25-75% neuromuscular response; for Onset: time to 80-85% neuromuscular block
From the text: as §1, §2, §3, §4, §5, §6
b) Adult cats were anesthetized with a mixture of 70 mg/kg alpha chloralose and 0.5 g/kg ethylurethane intraperitoneally. One thigh was fixed in a vertical position by means of a pin at the lower end of the femur. Needle electrodes were placed on the sciatic or the common peroneal nerve. A tendon of the anterior tibial muscle was attached to a force transducer and the muscle responses evoked, as described under a), were recorded. Both electromyographic and mechanomyographic responses can be quantified. Blood pressure and heart rate changes were recorded from appropriately cannulated arteries via a blood pressure transducer and cardiotachograph.

[5] = rat, intravenous dose causing 50% neuromuscular block
[6] = rat, at 80-85% neuromuscular blocking dose
[7] = at 80-85% neuromuscular blocking dose
[8] = Oryctolagus cuniculus, read-out: ED50

| Structure (SMILES) | RI (recovery index) ([1]; rat) [min] | Onset ([1]; rat) [min] | RI (recovery index) [2] [min] | Onset [2] [min] | RI (recovery index) [3] [min] | Onset [3] [min] | ED50 ([1]; Rattus norvegicus, iv) [mg/kg] | VB (vagal block) [1, 6] [%] | ΔBP (change in arterial blood pressure) [1, 6] [%] | ΔH (change in heart rate) [1, 6] [%] | ED50 ([2]; Sus scrofa, read-out: ED50) [mg/kg] | VB (vagal block) [2, 7] [%] | ΔBP (change in arterial blood pressure) [2, 7] [%] | ΔH (change in heart rate) [2, 7] [%] | ED50 [3, 8] [mg/kg] | ΔBP (change in arterial blood pressure) [3, 7] [%] | ΔH (change in heart rate) [3, 7] [%] | other results |
| --- | --- | --- | --- | --- | --- | --- | --- | --- | --- | --- | --- | --- | --- | --- | --- | --- | --- | --- |
| CCC(=O)Oc1ccc(C[N+]2(C)C3CCCC2CC(OC(=O)CCCCCC(=O)OC2CC4CCCC(C2)[N+]4(C)Cc2ccc(OC(=O)CC)c(OC(=O)CC)c2)C3)cc1OC(=O)CC.[Br-].[Br-] (centres unmarked) [bis[N-(3,4-dipropionyloxybenzyl)granataninium-3-yl]pimelate dibromide] | 0.35 | 0.5 | 0.5 | 0.5 | 0.4 | 0.45 |  |  |  |  |  |  |  |  |  |  |  | VB (vagal block) ([1]; rat, in vivo): 2%; ΔBP (change in arterial blood pressure) ([1]; rat, in vivo): −6%; ΔH (change in heart rate) ([1]; rat, in vivo): −3%; ED50 [1, 5]: 0.45 mg/kg; VB (vagal block) ([2]; in vivo): 30%; ΔBP (change in arterial blood pressure) ([2]; in vivo): 0%; ΔH (change in heart rate) ([2]; in vivo): 0%; ED50 [2]: 0.7 mg/kg; ΔBP (change in arterial blood pressure) ([3]; in vivo): 0%; ΔH (change in heart rate) ([3]; in vivo): 0%; ED50 [3]: 0.5 mg/kg |
| CCC(=O)Oc1ccc(C[N+]2(C)[C@@H]3CC[C@H]2C[C@@H](OC(=O)CCCCC(=O)O[C@H]2C[C@H]4CC[C@@H](C2)[N+]4(C)Cc2ccc(OC(=O)CC)c(OC(=O)CC)c2)C3)cc1OC(=O)CC.[Br-].[Br-] (stereo partly drawn) [bis[N-(3,4-dipropionyloxybenzyl)tropanium-3α-yl]adipate dibromide] | 0.4 | 0.6 | 0.75 | 0.65 | 0.65 | 0.9 | 0.217 | 18 | 0 | 0 | 0.3 | 65 | 0 | 0 | 0.075 | 0 | 0 |  |
| CCC(=O)Oc1ccc(C[N+]2(C)[C@@H]3CC[C@H]2C[C@@H](OC(=O)C2CCC2C(=O)O[C@H]2C[C@H]4CC[C@@H](C2)[N+]4(C)Cc2ccc(OC(=O)CC)c(OC(=O)CC)c2)C3)cc1OC(=O)CC.[Br-].[Br-] (stereo partly drawn) [bis[N-(3,4-dipropionyloxybenzyl)tropanium-3α-yl]cyclobutane-1,2-dicarboxylate dibromide] | 0.6 | 0.6 | 0.6 | 0.7 | 0.5 | 0.87 | 0.238 | 17 | 0 | 0 | 0.317 | 50 | 0 | 0 | 0.128 | 0 | 0 |  |
| CCC(=O)Oc1ccc(C[N+]2(C)[C@@H]3CC[C@H]2C[C@@H](OC(=O)CCCC(=O)O[C@H]2C[C@H]4CC[C@@H](C2)[N+]4(C)Cc2ccc(OC(=O)CC)c(OC(=O)CC)c2)C3)cc1OC(=O)CC.[Br-].[Br-] (stereo partly drawn) [bis[N-(3,4-dipropionyloxybenzyl)tropanium-3α-yl]glutarate dibromide] | 0.5 | 0.7 | 0.6 | 1.1 | 0.8 | 1 | 0.3 | 0 | 0 | 0 | 0.45 | 70 | 0 | 0 | 0.065 | 0 | 0 |  |
| CCC(=O)Oc1c(OC)cc(C[N+]2(C)[C@@H]3CC[C@H]2C[C@@H](OC(=O)C2CCCC(C(=O)O[C@H]4C[C@H]5CC[C@@H](C4)[N+]5(C)Cc4cc(OC)c(OC(=O)CC)c(OC)c4)C2)C3)cc1OC.[Br-].[Br-] (stereo partly drawn) [bis[N-(3,5-dimethoxy-4-propionyloxybenzyl)tropanium-3α-yl]cyclohexane-1,3-dicarboxylate dibromide] | 0.45 | 0.55 | 1.3 | 0.7 | 0.4 | 0.45 | 0.27 | 0 | 0 | 0 | 0.25 | 30 | 0 | 0 | 0.4 | 0 | 0 |  |
| COc1cc(C[N+]2(C)[C@@H]3CC[C@H]2C[C@@H](OC(=O)CCCCCCCCCC(=O)O[C@H]2C[C@H]4CC[C@@H](C2)[N+]4(C)Cc2cc(OC)c(OC(C)=O)c(OC)c2)C3)cc(OC)c1OC(C)=O.[Br-].[Br-] (stereo partly drawn) [bis[N-(4-acetoxy-3,5-dimethoxybenzyl)tropanium-3α-yl]1,9-nonanedicarboxylate dibromide] | 0.5 | 0.4 | 1.2 | 0.5 | 0.35 | 0.35 | 0.5 | 99 | 0 | 0 | 0.6 | 90 | 0 | 0 | 0.5 | 0 | 0 |  |
| COc1cc(C[N+]2(C)C3CCC2CC(OC(=O)C2C4C=CC(C4)C2C(=O)OC2CC4CCC(C2)[N+]4(C)Cc2cc(OC)c(OC(C)=O)c(OC)c2)C3)cc(OC)c1OC(C)=O.[Br-].[Br-] (stereo not drawn) [bis[N-(4-acetoxy-3,5-dimethoxybenzyl)tropanium-3α-yl]trans-3,6-endomethylene-1,2,3,6-tetrahydrophthalate dibromide] | 0.8 | 0.7 | 2 | 0.54 | 0.45 | 0.45 |  | 20 | 0 | 0 |  |  |  |  |  |  |  | ED50 [1, 5]: 0.2 mg/kg; VB (vagal block) ([2]; in vivo): 26%; ΔBP (change in arterial blood pressure) ([2]; in vivo): 0%; ΔH (change in heart rate) ([2]; in vivo): 0%; ED50 [2]: 0.343 mg/kg; ΔBP (change in arterial blood pressure) ([3]; in vivo): 0%; ΔH (change in heart rate) ([3]; in vivo): 0%; ED50 [3]: 0.145 mg/kg |
| C[N+]1(CC2CC2)[C@@H]2CC[C@H]1C[C@@H](OC(=O)CCCCCCC(=O)O[C@H]1C[C@H]3CC[C@@H](C1)[N+]3(C)CC1CC1)C2.[Br-].[Br-] (stereo partly drawn) [bis[N-(cyclopropylmethyl)tropanium-3α-yl]suberate dibromide, reference compound] |  |  |  |  |  |  |  |  |  |  |  |  |  |  |  |  |  | ED50 [4]: 0.155 mg/kg; VB (vagal block) [4]: 80%; ΔBP (change in arterial blood pressure) [4]: 0%; ΔH (change in heart rate) [4]: 0%; RI (recovery index) [4]: 9 min; Onset [4]: 1.4 min |
| C[N+]1(C)[C@@H]2CC[C@H]1C[C@@H](OC(=O)CCCCCCCCC(=O)O[C@H]1C[C@H]3CC[C@@H](C1)[N+]3(C)C)C2.[I-].[I-] [bis[N-methyltropanium-3α-yl]sebacate diiodide, reference compound] |  |  |  |  |  |  |  |  |  |  |  |  |  |  |  |  |  | ED50 [4]: 0.125 mg/kg; VB (vagal block) [4]: 100%; ΔBP (change in arterial blood pressure) [4]: 0%; ΔH (change in heart rate) [4]: 0%; RI (recovery index) [4]: 3.9 min; Onset [4]: 2.3 min |
